Source: patent EP0537575A1, “Hydrobromide of DC-89 derivative having antitumor activity” (KYOWA HAKKO KOGYO CO., LTD., priority 1991, dated 1993)
≈ marks a conversion by molar mass, not a printed value.

Assays:
[1] = system: Bacillus subtilis ATCC6633; assay: Antibacterial activity, agar dilution method; format: cell-based; conditions: pH 7.0
Experimental: (§1) Minimum inhibitory concentrations (MIC) of Compound (I) against various bacteria were determined by the agar dilution method (pH 7.0).

[2] = system: Staphylococcus aureus 209-P; assay: Antibacterial activity, agar dilution method; format: cell-based; conditions: pH 7.0
Experimental: as §1

[3] = system: Micrococcus luteus ATCC9341; assay: Antibacterial activity, agar dilution method; format: cell-based; conditions: pH 7.0
Experimental: as §1

[4] = system: Staphylococcus epidermidis S1318; assay: Antibacterial activity, agar dilution method; format: cell-based; conditions: pH 7.0
Experimental: as §1

[5] = system: Staphylococcus aureus 6538-P; assay: Antibacterial activity, agar dilution method; format: cell-based; conditions: pH 7.0
Experimental: as §1

HeLaS₃ cells = assay: Growth inhibition test on HeLaS₃ cells (Neutral Red staining); format: cell-based; conditions: Homo sapiens, HeLa, 72 hours culture, absorbance 550 nm, read-out: HeLaS₃ IC₅₀
Experimental: HeLaS₃ cells suspended in MEM medium containing 10% fetal calf serum and 2 mM glutamine (hereinafter referred to as medium A) to a concentration of 3 × 10⁴ cells/ml were put into wells of a 96-well microtiter plate in an amount of 0.1 ml per well.
After culturing at 37°C overnight in a CO₂-incubator, 0.05 ml of a test sample appropriately diluted with medium A was added to each well.
The cells were further cultured at 37°C for 72 hours in the CO₂-incubator and the culture supernatant was removed. The residue was washed once with phosphate buffered physiological saline (PBS), and 0.1 ml of a medium containing medium A and 0.02% Neutral Red was added to each well, followed by culturing at 37°C for one hour in the CO₂-incubator to stain the cells. After removal of the culture supernatant, the cells were washed once with physiological saline, and the dye was extracted with 0.001N HCl/30% ethanol. Absorbance of the extract at 550 nm was measured with a microplate reader. By comparing the absorbance of the extract of intact cells with those of the cells treated with the test compound at known concentrations, the concentration of the test compound which inhibited growth of the cells by 50% (IC₅₀) was determined.

Sarcoma 180 tumor = assay: Therapeutic effect against Sarcoma 180 tumor implanted subcutaneously in mice; format: in vivo, ddY-strain mice; conditions: Dose 0.70 mg/kg, intravenously, one day after implantation; tumor volume seven days after implantation
Experimental: Five male ddY-strain mice each weighing 18 to 20 g were used for each group as test animals, and 5 × 10⁵ Sarcoma 180 tumor cells were implanted subcutaneously into the animals at the axilla. One day after the implantation, 0.2 ml of physiological saline containing a test compound at the concentration indicated in Table 1 was intravenously administered to each mouse. T/C [T: average tumor volume (mm³) of the group treated with the test compound, C: that of the control group which received an intravenous administration of 0.2 ml of physiological saline] was determined seven days after the implantation.

[6] = Stability in solution for preparing a freeze-dried preparation (HPLC); format: physicochemical; conditions: for Residual Rate: 1 mg/ml in water with 50 mg lactose and 0.5 mg citric acid per ml, 25°C
Experimental: In 1 ml of distilled water was dissolved 50 mg of lactose and 0.5 mg of citric acid. Compound (I) or Compound (III) was dissolved in the solution to a concentration of 1 mg/ml. The test solution was poured in a vial, and kept in a thermostat at 25°C. The concentration of Compound (I) or Compound (III) in the solution was determined by High Performance Liquid Chromatography (HPLC) with the elapse of time. The concentration of each test compound in the test solution just after the dissolution was defined as 100 %. The residual rate (%) was calculated according to the following equation. [formula]

MIC [1]: 6.25 µg/mL (≈ 8.95 µM)
MIC [2]: 6.25 µg/mL (≈ 8.95 µM)
MIC [3]: 25 µg/mL (≈ 35.8 µM)
MIC [4]: 6.25 µg/mL (≈ 8.95 µM)
MIC [5]: 6.25 µg/mL (≈ 8.95 µM)
IC50 (HeLaS₃ cells): 31 nM
Residual Rate ([6]; Time 0 hr (defined as 100 %)): 100%
Residual Rate ([6]; Time 3 hr): 99%
Residual Rate ([6]; Time 6 hr): 98%
stability in solution (in words) ([6]; compared with Compound (III), results of Table 3): improved stability in solution
SMILES: COC(=O)c1c(C)[nH]c2c(OC(=O)N3CCN(C)CC3)cc3c(c12)C(CBr)CN3C(=O)c1cc2cc(OC)c(OC)c(OC)c2[nH]1 (centres unmarked) [Compound (I)]
Sarcoma 180 T/C (Sarcoma 180 tumor): 0.095
